# Measurements reported in ChEMBL document CHEMBL1150978, “Design and synthesis of cosalane, a novel anti-HIV agent” (Bioorg Med Chem Lett, 1993).
# pEC50, pIC50: −log10 of the molar value.
# How the values were obtained:
# [1] = Tested for the therapeutic index of production of viral antigen (p30) against Sc-1 cells of rauscher murine leukemia virus (R-Mul V); assay type: functional, Mus musculus
# MT4 [2] = assay: Tested for the antiviral activity against MT-4 cells infected with HIV (IIIb) strain resistant to non-nucleoside reverse transcriptase inhibitors; assay type: functional, cell-based; conditions: Homo sapiens
# CEM-SS [3] = assay: Tested for the therapeutic index against CEM-SS cells of HIV-2 (NIH-D2); assay type: functional, Homo sapiens
# MT2 [4] = assay: Tested for the inhibitory activity against MT-2 cells; assay type: functional, cell-based; conditions: Homo sapiens
# CEM-SS [5] = assay: Tested for the inhibitory activity against CEM-SS cells; assay type: functional, cell-based; conditions: Homo sapiens
# [6] = Tested for the antiviral activity of production of viral antigen (p30) against Sc-1 cells of rauscher murine leukemia virus (R-Mul V); assay type: functional, cell-based; conditions: Mus musculus
# CEM-SS [7] = assay: Tested for the therapeutic index against CEM-SS cells of HIV-1 (IIIb); assay type: functional, Homo sapiens
# MT4 [8] = assay: Tested for the therapeutic index against MT-4 cells of HIV-1 (IIIb); assay type: functional, Homo sapiens
# MT2 [9] = assay: Tested for the antiviral activity against MT-2 cells infected with AZT resistant strain of HIV-1 (A012); assay type: functional, cell-based; conditions: Homo sapiens
# CEM-SS [10] = assay: Tested for the therapeutic index against CEM-SS cells of HIV-1 (RF); assay type: functional, Homo sapiens
# [11] = Tested for the antiviral activity against Sc-1 cells infected with rauscher murine leukemia virus (R-Mul V) by plaque assay in mouse; assay type: functional, cell-based
# [12] = Tested for the therapeutic index against Sc-1 cells of rauscher murine leukemia virus (R-Mul V) by plaque assay in mouse; assay type: functional
# MT2 [13] = assay: Tested for the therapeutic index against MT-2 cells of AZT resistant strain of HIV-1 (A012); assay type: functional, Homo sapiens
# [14] = Tested for the inhibitory activity of production of viral antigen (p30) against Sc-1 cells of rauscher murine leukemia virus (R-Mul V); assay type: functional, cell-based; conditions: Mus musculus
# MT2 [15] = assay: Tested for the therapeutic index against MT-2 cells of AZT sensitive strain of HIV-1 (A012); assay type: functional, Homo sapiens
# CEM-SS [16] = assay: Tested for the antiviral activity against CEM-SS cells infected with HIV-1 (RF); value ranges from 2-15.; assay type: functional, cell-based; conditions: Homo sapiens
# MT2 [17] = assay: Tested for the antiviral activity against MT-2 cells infected with AZT sensitive strain of HIV-1 (A012); assay type: functional, cell-based; conditions: Homo sapiens
# [18] = Tested for the inhibitory activity against Sc-1 cells by plaque assay in mouse; assay type: functional, cell-based
# MT4 [19] = assay: Tested for the inhibitory activity against MT-4 cells; assay type: functional, cell-based; conditions: Homo sapiens
# CEM-SS [20] = assay: Tested for the antiviral activity against CEM-SS cells infected with HIV-2 (NIH-D2); assay type: functional, cell-based; conditions: Homo sapiens
smiles,measurement,setting,value
CC(C)CCCC(C)[C@H]1CC[C@H]2[C@@H]3CCC4C[C@@H](CCC=C(c5cc(Cl)c(O)c(C(=O)O)c5)c5cc(Cl)c(O)c(C(=O)O)c5)CC[C@]4(C)[C@H]3CC[C@]12C (stereo not given in full),TI50,[1],>4
same,pEC50,MT4 [2],4.70
same,TI50,CEM-SS [3],>60
same,pIC50,MT2 [4],3.70
same,pIC50,CEM-SS [5],< 3.52
same,pEC50,[6],5.15
same,TI50,CEM-SS [7],>100
same,TI50,MT4 [8],>15
same,pEC50,MT2 [9],5.00
same,TI50,CEM-SS [10],>20
same,pEC50,[11],5.40
same,TI50,[12],>8
same,TI50,MT2 [13],20
same,pIC50,[14],< 4.49
same,TI50,MT2 [15],25
same,pEC50,CEM-SS [16],5.70
same,pEC50,MT2 [17],5.10
same,pIC50,[18],< 4.49
same,pIC50,MT4 [19],< 3.52
same,pEC50,CEM-SS [20],5.30
